Test results published in paper PMC8809056 (Science (New York, N.y.), 2021).
pEC50: −log10 of the molar value.

Each compound was assayed on SARS-CoV-2 (nCoV/Washington/1/2020) (assay: microbe, parasite or virus in culture). Conditions: not given.
Format: cell-based
For `Cc1ccc(NC(=O)c2ccc(CN3CCN(C)CC3)cc2)cc1Nc1nc(-c2cccnc2)cs1` [Masitinib], the “Inhibition of SARS-CoV-2 infection when added after infection” value was “effective in inhibiting SARS-CoV-2 infection”.

Same assay, conditions: A549-ACE2 cells
In the case of `Cc1ccc(NC(=O)c2ccc(CN3CCNCC3)cc2)cc1Nc1nc(-c2cccnc2)cs1` [AB3280], the “Inhibition of SARS-CoV-2 infection (in words)” value (“Inhibition … (in words)” below) was “maintains its antiviral activity”.
For `C[C@@H]1[C@H](O)[C@@H](C)/C=C/C=C/C=C/C=C/C=C/C=C/C=C/[C@H](O[C@@H]2O[C@H](C)[C@@H](O)[C@H](N)[C@@H]2O)C[C@@H]2O[C@](O)(C[C@@H](O)C[C@@H](O)[C@H](O)CC[C@@H](O)C[C@@H](O)CC(=O)O[C@H]1C)C[C@H](O)[C@H]2C(=O)O` [Amphotericin B], the “Inhibition … (in words)” value was “did not inhibit SARS-CoV-2 infection”.
For `COC(=O)N[C@H](C(=O)N1CCC[C@H]1c1nc(-c2ccc3c(c2)O[C@@H](c2ccccc2)n2c-3cc3cc(-c4c[nH]c([C@@H]5CCCN5C(=O)[C@@H](NC(=O)OC)C(C)C)n4)ccc32)c[nH]1)C(C)C` [Elbasvir], the “Inhibition … (in words)” value was “did not inhibit SARS-CoV-2 infection”.

Same assay, conditions: Severe acute respiratory syndrome coronavirus 2, A549-ACE2; read-out: EC50 against SARS-CoV-2 infection
In the case of `CN1CCCC(n2nc(Cc3ccc(Cl)cc3)c3ccccc3c2=O)CC1` (stereo not drawn) [Azelastine], the pEC50 was 5.62.
Compound `Cc1ccc(NC(=O)c2ccc(CN3CC[C@H](N(C)C)C3)c(C(F)(F)F)c2)cc1Nc1nccc(-c2cncnc2)n1` [Bafetinib] has a pEC50 of 5.66.
Work on `COc1ccc2cc1Oc1ccc(cc1)C[C@H]1c3c(cc4c(c3Oc3cc5c(cc3OC)CCN(C)[C@@H]5C2)OCO4)CCN1C` [Cepharanthine] yielded a pEC50 of 7.00.
`OCCN1CCN(CCC=C2c3ccccc3Sc3ccc(C(F)(F)F)cc32)CC1` [Flupenthixol] was tested, and the pEC50 was 6.12.
In the case of `CS(=O)(=O)CCNCc1ccc(-c2ccc3ncnc(Nc4ccc(OCc5cccc(F)c5)c(Cl)c4)c3c2)o1` [Lapatinib], the pEC50 was 5.80.
Compound `CCC(CC)COC(=O)[C@H](C)N[P@](=O)(OC[C@H]1O[C@@](C#N)(c2ccc3c(N)ncnn23)[C@H](O)[C@@H]1O)Oc1ccccc1` [Remdesivir] has a pEC50 of 6.14.
For `CC(CN(C)C)CN1c2ccccc2CCc2ccccc21` (stereo not drawn) [Trimipramine], the pEC50 was 5.82.

The compounds below were run on SARS-CoV-2 wild-type, B.1.1.7, B.1.351 and P.1 (assay: not given). Conditions: not given.
Format: cell-based
For `Cc1ccc(NC(=O)c2ccc(CN3CCN(C)CC3)cc2)cc1Nc1nc(-c2cccnc2)cs1` [Masitinib], the Viral progeny production was “dramatically reduced viral progeny production”.
